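Interpolation was linear, between the two tested concentrations surrounding the appropriate level; five concentrations were tested over 48 hours in 96-well plates. Abbreviation: GI50, concentration required for 50% inhibition of growth.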 Activity calls are given as the source filed them. Rule as the data show it: active = GI50 up to about 1.1 µM and inactive = higher.
Assays:
Assay in all cases: NCI anticancer screen, dose series, 48 h
OVCAR-4 = tested on: OVCAR-4
MOLT-4 = tested on: MOLT-4
LOX IMVI = tested on: LOX IMVI
CAKI-1 = tested on: CAKI-1
IGROV-1 = tested on: IGROV-1
HOP-92 = tested on: HOP-92
NCI-H226 = tested on: NCI-H226
A549 = tested on: A549
RPMI-8226 = tested on: RPMI-8226
SF-295 = tested on: SF-295
SR = tested on: SR
NCI-H460 = tested on: NCI-H460
UO-31 = tested on: UO-31
HOP-62 = tested on: HOP-62
M14 = tested on: M14
U-251 = tested on: U-251
COLO 205 = tested on: COLO 205
NCI-H522 = tested on: NCI-H522
SK-MEL-2 = tested on: SK-MEL-2
SN12C = tested on: SN12C

Measured: GI50

CC(=O)Nc1cc2c(cc1O)CC[C@@H]1[C@@H]2CC[C@]2(C)[C@@H](O)CC[C@@H]12
inactive: OVCAR-4 > 100 µM | MOLT-4 34.7 µM | LOX IMVI 34.6 µM | CAKI-1 84.1 µM | IGROV-1 82.4 µM | HOP-92 41 µM | NCI-H226 30.8 µM | A549 36.6 µM | RPMI-8226 45.3 µM | SF-295 31.3 µM | SR 20.8 µM | NCI-H460 34.8 µM | UO-31 21.5 µM | HOP-62 73.1 µM | M14 39.4 µM | U-251 42 µM | COLO 205 30 µM | NCI-H522 20.8 µM

C=CCN1C(N)=C(C(N)=O)S/C1=C1/SC(=S)N(c2ccc(C)cc2)C1=O
inactive: MOLT-4 > 100 µM | IGROV-1 > 100 µM | HOP-92 > 100 µM | NCI-H226 > 100 µM | A549 > 100 µM | RPMI-8226 > 100 µM | SF-295 49.8 µM | SR > 100 µM | SK-MEL-2 > 100 µM | NCI-H460 > 100 µM | UO-31 > 100 µM | U-251 > 100 µM | COLO 205 > 100 µM | NCI-H522 > 100 µM

COc1cc(Nc2c3ccccc3nc3ccccc23)ccc1NS(C)(=O)=O
inactive: OVCAR-4 3.61 µM | SN12C 2.58 µM | MOLT-4 40.7 µM | LOX IMVI 2.67 µM | CAKI-1 3.02 µM | IGROV-1 10.4 µM | NCI-H226 11.2 µM | A549 2.42 µM | RPMI-8226 2.83 µM | SF-295 3.84 µM | SR 2.72 µM | SK-MEL-2 7.53 µM | NCI-H460 2.64 µM | UO-31 4.41 µM | HOP-62 7.6 µM | M14 3.14 µM | U-251 4.59 µM | COLO 205 3.48 µM | NCI-H522 3.42 µM

N#CC(NC12CC3CC(CC(C3)C1)C2)c1ccccc1C(F)(F)F (centres undefined)
inactive: OVCAR-4 > 100 µM | SN12C > 100 µM | MOLT-4 > 100 µM | LOX IMVI > 100 µM | CAKI-1 > 100 µM | NCI-H226 > 100 µM | A549 > 100 µM | RPMI-8226 > 100 µM | SR > 100 µM | SK-MEL-2 > 100 µM | NCI-H460 > 100 µM | UO-31 > 100 µM | HOP-62 > 100 µM | M14 > 100 µM | COLO 205 > 100 µM | NCI-H522 > 100 µM

O=C1/C(=C\c2cccc(Oc3ccccc3)c2)SC(c2ccccc2)N1c1cccc([N+](=O)[O-])c1 (centres undefined)
inactive: OVCAR-4 70.3 µM | SN12C > 100 µM | MOLT-4 40.7 µM | LOX IMVI 41.6 µM | CAKI-1 > 100 µM | HOP-92 45.7 µM | NCI-H226 87.1 µM | A549 > 100 µM | RPMI-8226 34.7 µM | SF-295 > 100 µM | SR 32.3 µM | SK-MEL-2 > 100 µM | NCI-H460 > 100 µM | UO-31 96.8 µM | HOP-62 > 100 µM | M14 65 µM | U-251 36.7 µM | COLO 205 > 100 µM | NCI-H522 57.5 µM

COc1ccc(CNc2nc3cc(C(F)(F)F)ccc3nc2C)cc1OC
inactive: OVCAR-4 12 µM | SN12C 30.5 µM | MOLT-4 17.3 µM | LOX IMVI 24.9 µM | CAKI-1 33 µM | IGROV-1 31 µM | A549 32.1 µM | RPMI-8226 27.1 µM | SF-295 34.4 µM | SK-MEL-2 19.5 µM | NCI-H460 30.1 µM | UO-31 24 µM | HOP-62 20.8 µM | M14 20.3 µM | U-251 37 µM | COLO 205 32.9 µM | NCI-H522 21.9 µM

Cc1c(C#N)c2nnn(C)c(=O)n2c1-c1ccccc1
inactive: OVCAR-4 > 100 µM | SN12C > 100 µM | CAKI-1 > 100 µM | HOP-92 > 100 µM | NCI-H226 62.1 µM | A549 86.3 µM | RPMI-8226 84.9 µM | SF-295 51.6 µM | SK-MEL-2 > 100 µM | NCI-H460 > 100 µM | UO-31 95.5 µM | HOP-62 > 100 µM | M14 > 100 µM | U-251 > 100 µM

COc1cccc(N/C(C)=C2/CCOC2=O)c1
inactive: OVCAR-4 > 10 µM | SN12C > 10 µM | MOLT-4 > 10 µM | LOX IMVI > 10 µM | CAKI-1 > 10 µM | IGROV-1 > 10 µM | NCI-H226 > 10 µM | A549 > 10 µM | RPMI-8226 > 10 µM | SF-295 > 10 µM | SR > 10 µM | SK-MEL-2 > 10 µM | NCI-H460 > 10 µM | UO-31 8.15 µM | HOP-62 > 10 µM | M14 > 10 µM | U-251 > 10 µM | COLO 205 > 10 µM | NCI-H522 > 10 µM

O=C(CCl)NC(Cc1ccc(F)cc1)C(=O)O (centres undefined)
inactive: OVCAR-4 > 100 µM | SN12C > 100 µM | MOLT-4 > 100 µM | LOX IMVI > 100 µM | CAKI-1 > 100 µM | IGROV-1 > 100 µM | HOP-92 > 100 µM | NCI-H226 > 100 µM | A549 > 100 µM | RPMI-8226 > 100 µM | SF-295 > 100 µM | SK-MEL-2 > 100 µM | NCI-H460 > 100 µM | UO-31 > 100 µM | HOP-62 > 100 µM | U-251 > 100 µM | COLO 205 > 100 µM | NCI-H522 > 100 µM

Cc1sc(Cc2ccccc2)nc1-c1ccc(N)cc1
inactive: OVCAR-4 12.7 µM | SN12C 21.1 µM | MOLT-4 13.8 µM | LOX IMVI 15.2 µM | CAKI-1 24 µM | IGROV-1 27.9 µM | HOP-92 13.8 µM | A549 30.6 µM | RPMI-8226 16.3 µM | SF-295 37.4 µM | SK-MEL-2 17.3 µM | NCI-H460 23 µM | UO-31 38.9 µM | M14 20.6 µM | U-251 26.6 µM | COLO 205 23.1 µM | NCI-H522 16 µM

CC(C)(C)CI
inactive: SN12C 18.4 µM | MOLT-4 37.2 µM | LOX IMVI 17.3 µM | IGROV-1 > 100 µM | HOP-92 26.2 µM | A549 25.6 µM | SF-295 18.5 µM | SR 25.4 µM | SK-MEL-2 19.8 µM | NCI-H460 27.9 µM | UO-31 > 10 µM | M14 25 µM | U-251 26.2 µM | COLO 205 22.2 µM | NCI-H522 17.5 µM

O=C(O)c1ccc([Se][Se]c2ccc(C(=O)O)cc2)cc1
inactive: OVCAR-4 19.2 µM | SN12C 37.5 µM | CAKI-1 19.4 µM | IGROV-1 30.4 µM | NCI-H226 26.8 µM | A549 25.8 µM | RPMI-8226 21.2 µM | SF-295 23.6 µM | SR > 10 µM | SK-MEL-2 27.4 µM | NCI-H460 6.65 µM | UO-31 29.9 µM | M14 18.5 µM | U-251 21.1 µM | COLO 205 32.9 µM | NCI-H522 23.6 µM

NC1C=NNC1=O (centres undefined)
inactive: OVCAR-4 > 100 µM | SN12C > 100 µM | MOLT-4 > 100 µM | LOX IMVI > 100 µM | CAKI-1 > 100 µM | IGROV-1 > 100 µM | A549 > 100 µM | RPMI-8226 > 100 µM | SF-295 > 100 µM | SK-MEL-2 > 100 µM | UO-31 > 100 µM | M14 > 100 µM | U-251 > 100 µM | COLO 205 > 100 µM | NCI-H522 > 100 µM

COc1cc(Nc2nc3cc(C(F)(F)F)ccc3n3cccc23)cc(OC)c1OC
inactive: SN12C 32.4 µM | MOLT-4 8.49 µM | CAKI-1 > 100 µM | IGROV-1 > 100 µM | HOP-92 > 100 µM | A549 > 100 µM | RPMI-8226 > 100 µM | SF-295 5.02 µM | SK-MEL-2 > 100 µM | UO-31 > 100 µM | HOP-62 > 100 µM | M14 17.8 µM | U-251 > 100 µM | COLO 205 > 100 µM | NCI-H522 > 100 µM

Cc1c2ccnc(C(F)(F)F)c2cc2c1[nH]c1ccccc12
inactive: OVCAR-4 > 125 µM | SN12C > 125 µM | MOLT-4 85.1 µM | LOX IMVI > 125 µM | CAKI-1 > 125 µM | IGROV-1 > 125 µM | HOP-92 8.63 µM | NCI-H226 38.9 µM | A549 > 125 µM | RPMI-8226 85.1 µM | SF-295 23.2 µM | SK-MEL-2 > 125 µM | NCI-H460 123 µM | UO-31 > 125 µM | HOP-62 73.3 µM | U-251 > 125 µM | COLO 205 > 125 µM | NCI-H522 > 125 µM

CC1(C)CCCC2(C)[C@@H]1CC[C@]13C[C@](C)(CC[C@@H]21)[C@@H]3CO (some centres undefined)
inactive: OVCAR-4 > 100 µM | SN12C > 100 µM | MOLT-4 > 100 µM | LOX IMVI > 100 µM | CAKI-1 > 100 µM | IGROV-1 > 100 µM | HOP-92 > 100 µM | NCI-H226 > 100 µM | A549 > 100 µM | RPMI-8226 > 100 µM | SF-295 > 100 µM | SR > 10 µM | NCI-H460 > 100 µM | UO-31 > 100 µM | HOP-62 > 100 µM | M14 > 100 µM | U-251 > 100 µM | COLO 205 > 100 µM | NCI-H522 > 100 µM

— ChEMBL document CHEMBL1201862, “PubChem BioAssay data set” (2004)
